{
  "source": "paper doi:10.1101/471615v1",
  "about": "(biorxiv, 2018)",
  "biological_target": "T1, GAK (InCELL Pulse) (Homo sapiens, UniProt O14976)",
  "T1 sequence (O14976 2-1311)": "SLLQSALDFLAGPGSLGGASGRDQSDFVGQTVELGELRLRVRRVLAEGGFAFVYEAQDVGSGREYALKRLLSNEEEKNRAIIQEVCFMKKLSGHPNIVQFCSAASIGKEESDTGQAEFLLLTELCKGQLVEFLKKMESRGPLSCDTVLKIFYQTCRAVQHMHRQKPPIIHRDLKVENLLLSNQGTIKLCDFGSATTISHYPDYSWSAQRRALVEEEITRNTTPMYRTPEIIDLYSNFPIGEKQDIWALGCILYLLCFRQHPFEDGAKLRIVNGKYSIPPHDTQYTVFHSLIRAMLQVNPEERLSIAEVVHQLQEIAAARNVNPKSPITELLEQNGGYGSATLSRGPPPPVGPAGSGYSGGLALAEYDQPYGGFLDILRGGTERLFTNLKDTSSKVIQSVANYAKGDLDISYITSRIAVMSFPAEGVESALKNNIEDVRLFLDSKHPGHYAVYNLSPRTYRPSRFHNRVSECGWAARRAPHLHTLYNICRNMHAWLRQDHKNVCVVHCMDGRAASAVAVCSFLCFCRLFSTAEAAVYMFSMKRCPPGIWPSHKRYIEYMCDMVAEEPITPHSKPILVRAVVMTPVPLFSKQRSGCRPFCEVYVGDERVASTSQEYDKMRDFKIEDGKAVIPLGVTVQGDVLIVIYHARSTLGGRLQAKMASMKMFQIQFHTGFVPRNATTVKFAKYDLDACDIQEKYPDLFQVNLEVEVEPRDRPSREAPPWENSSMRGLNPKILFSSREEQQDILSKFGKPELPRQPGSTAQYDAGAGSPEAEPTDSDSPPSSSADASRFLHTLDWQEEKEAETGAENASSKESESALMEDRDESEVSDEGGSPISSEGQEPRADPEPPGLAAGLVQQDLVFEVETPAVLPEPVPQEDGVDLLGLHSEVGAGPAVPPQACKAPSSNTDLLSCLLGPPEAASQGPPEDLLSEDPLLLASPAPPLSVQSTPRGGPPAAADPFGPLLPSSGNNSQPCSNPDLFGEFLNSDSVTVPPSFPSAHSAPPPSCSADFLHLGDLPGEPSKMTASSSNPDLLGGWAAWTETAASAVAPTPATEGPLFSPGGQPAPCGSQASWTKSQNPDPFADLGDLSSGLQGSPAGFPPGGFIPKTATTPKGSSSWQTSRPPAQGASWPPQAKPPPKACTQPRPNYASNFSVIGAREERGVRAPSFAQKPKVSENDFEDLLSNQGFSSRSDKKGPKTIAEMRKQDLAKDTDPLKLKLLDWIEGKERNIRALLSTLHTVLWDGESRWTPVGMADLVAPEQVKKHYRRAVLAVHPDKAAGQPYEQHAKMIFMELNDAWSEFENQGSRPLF",
  "test": "InCELL Pulse cellular target engagement",
  "assay_type": "cell-based",
  "conditions": "in cells",
  "data": [
    {"smiles": "COc1cc2nccc(Nc3cc(OC)c(OC)c(OC)c3)c2cc1OC", "note": "[compound 15, 6,7-disubstituted methoxy (15)]", "values": [
      {"measurement": "IC50", "value": 0.045, "unit": "µM"}
    ]},
    {"smiles": "COc1cc(Nc2ncnc3ccc(C(F)(F)F)cc23)cc(OC)c1OC", "note": "[compound 19, quinazoline (19)]", "values": [
      {"measurement": "IC50", "value": 6.7, "unit": "µM"}
    ]}
  ]
}
